From PubChem BioAssay (NCI)
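Cells were grown in 96-well plates and exposed to each compound for 48 hours at five concentrations; endpoints were interpolated linearly between bracketing concentrations, or set to the highest concentration if not reached. Definition used: TGI = concentration required for complete inhibition of growth.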

How the values were obtained:
Experiment in all cases: inhibition of tumour cell growth, NCI panel, 48 h
786-0 renal = test system: 786-0 renal
HT29 colon = test system: HT29 colon
NCI-H226 lung = test system: NCI-H226 lung
NCI-H460 lung = test system: NCI-H460 lung
OVCAR-8 ovarian = test system: OVCAR-8 ovarian
SF-539 CNS = test system: SF-539 CNS
SK-MEL-2 melanoma = test system: SK-MEL-2 melanoma
SNB-19 CNS = test system: SNB-19 CNS
T-47D breast = test system: T-47D breast
UACC-257 melanoma = test system: UACC-257 melanoma

| SMILES | TGI (786-0 renal) | TGI (HT29 colon) | TGI (NCI-H226 lung) | TGI (NCI-H460 lung) | TGI (OVCAR-8 ovarian) | TGI (SF-539 CNS) | TGI (SK-MEL-2 melanoma) | TGI (SNB-19 CNS) | TGI (T-47D breast) | TGI (UACC-257 melanoma) |
| --- | --- | --- | --- | --- | --- | --- | --- | --- | --- | --- |
| Clc1nc2c(C#Cc3ccccc3)ncnc2n1C1CCCCO1 (stereo not given) | 25.3 µM | 27.6 µM | > 100 µM | 39.6 µM | > 100 µM | 42.2 µM | 31.5 µM | 37.3 µM | > 100 µM | 41.1 µM |
| Cc1nc(Nc2nc3ccccc3[nH]2)nc(Cl)c1CCCl | > 100 µM | > 100 µM | > 100 µM | > 100 µM | > 100 µM | > 100 µM | > 100 µM | > 100 µM | > 100 µM | > 100 µM |
| C/C(=N/NC(=S)N1CCN(C(=S)N/N=C(/C)c2ccccn2)CC1)c1ccccn1 | > 100 µM | > 100 µM | > 74.5 µM | > 100 µM | > 100 µM | > 100 µM | > 100 µM | > 100 µM | 42.5 µM | > 100 µM |
| Cc1nc2cccc(F)c2c(=O)n1-c1nnc(C(F)(F)F)s1 | > 10 µM | > 10 µM | > 10 µM | > 10 µM | > 10 µM | > 10 µM | > 10 µM | > 10 µM | > 10 µM | > 10 µM |
| COC(=O)c1cc(C)ccc1C1CN=NC12Cc1c(C)cc(C)cc1C2=O (stereo not given) | > 100 µM | 45.8 µM | 87.6 µM | 42.7 µM | > 100 µM | 32.7 µM | 33.1 µM | > 100 µM | > 100 µM | 69.7 µM |
| COc1cc2c(cc1O)CCN(C)[C@H]2Cc1ccc(Oc2c(O)c(OC)cc3c2C[C@H]2c4c(c(OC)c(OC)c(OC)c4-3)CCN2C)cc1 | 9.4 µM | 7.35 µM | 13.6 µM | 7.65 µM | 13.1 µM | 11.5 µM | 12.6 µM | 12.5 µM | 12.2 µM | 13.4 µM |
| O=C1C(Cl)=C(c2ccc([N+](=O)[O-])cc2)C(=O)c2c(O)cccc21 | 8.82 µM | 7.37 µM | 5.74 µM | 6.99 µM | 5.78 µM | 1.13 µM | 2.22 µM | 5.68 µM | 5.54 µM | 4.84 µM |
| O=P(O)(O)C=C=C1CCCCC1 | > 100 µM | > 100 µM | > 100 µM | > 100 µM | > 100 µM | > 100 µM | > 100 µM | > 100 µM | > 100 µM | > 100 µM |
| N#Cc1c(N2CCN(c3ccc([N+](=O)[O-])cc3)CC2)[n+](=O)c2ccc(-c3ccc([N+](=O)[O-])cc3)cc2n1[O-] | > 100 µM | > 100 µM | > 100 µM | > 38.3 µM | > 100 µM | > 100 µM | > 100 µM | > 100 µM | > 100 µM | > 100 µM |
| NC1c2c(Cl)sc(Cl)c2C(=O)C1O (stereo not given) | > 100 µM | 33.9 µM | > 100 µM | > 100 µM | 51.8 µM | > 100 µM | > 100 µM | > 100 µM | > 100 µM | > 100 µM |
| COc1cc(C)cc2c(-c3c(O)cc(O)c4c3C[C@H](C)N[C@H]4C)cc(-c3cc(-c4c(O)cc(O)c5c4C[C@H](C)N[C@H]5C)c4cc(C)cc(OC)c4c3O)c(O)c12 | > 100 µM | > 100 µM | > 100 µM | > 100 µM | > 100 µM | > 100 µM | > 100 µM | > 100 µM | > 100 µM | > 100 µM |
| COc1ccccc1NC(=S)N/N=C/c1ccccn1 | 13 µM | > 31.6 µM | > 35.9 µM | 6.12 µM | 12.9 µM | 5.07 µM | 29.5 µM | > 46.4 µM | 1.95 µM | 0.416 µM |
| O=C(O)COc1cc(-c2ccccc2)nc2ccccc12 | > 100 µM | > 100 µM | > 100 µM | > 100 µM | > 100 µM | > 100 µM | > 100 µM | > 100 µM | > 100 µM | > 100 µM |
| C=CCc1ccccc1C1CC2(C(=O)OC)OC1C(C(=O)OC)=C2C(=O)OC (stereo not given) | > 10 µM | > 10 µM | > 10 µM | > 10 µM | > 10 µM | > 10 µM | > 10 µM | > 10 µM | > 10 µM | > 10 µM |
| CCN1CCCn2c(=O)[nH]c3cc(Br)cc1c32 | > 100 µM | > 100 µM | > 100 µM | > 100 µM | > 100 µM | > 100 µM | > 100 µM | > 100 µM | > 100 µM | > 100 µM |
| CCN(CC)C1Oc2cc3c(cc2C(c2cc(OC)c(OC)c(OC)c2)C1C)OCO3 (stereo not given) | > 40.6 µM | 9.95 µM | 4.54 µM | 22.5 µM | > 43.2 µM | 1.43 µM | 11.7 µM | > 53 µM | > 88.7 µM | > 100 µM |
| Cc1ccc(/C=C2/NC(=S)SC2=O)cc1 | > 100 µM | > 100 µM | > 100 µM | 50.4 µM | > 100 µM | > 100 µM | > 100 µM | > 100 µM | > 100 µM | > 100 µM |
| Cc1cn(CCOCCOC(=O)NC(CCCNC(N)=O)C(=O)O)c(=O)[nH]c1=O (stereo not given) | > 100 µM | > 100 µM | > 100 µM | > 100 µM | > 100 µM | > 100 µM | > 100 µM | > 100 µM | > 100 µM | > 100 µM |

| SMILES | TGI (786-0 renal) | TGI (HT29 colon) | TGI (NCI-H226 lung) | TGI (NCI-H460 lung) | TGI (OVCAR-8 ovarian) | TGI (SF-539 CNS) | TGI (SK-MEL-2 melanoma) | TGI (SNB-19 CNS) | TGI (T-47D breast) | TGI (UACC-257 melanoma) |
| --- | --- | --- | --- | --- | --- | --- | --- | --- | --- | --- |
| COc1cc2c(cc1OC)C(=O)/C(=C/c1ccc(O)cc1)CC2 | > 10 µM | > 10 µM | > 10 µM | > 10 µM | > 10 µM | > 10 µM | > 10 µM | > 10 µM | > 10 µM | > 10 µM |
| O=[N+]([O-])c1ccc2nc(/C=C(\O)c3ccc(Cl)cc3)c(/C=C(\O)c3ccc(Cl)cc3)nc2c1 | > 100 µM | > 100 µM | > 100 µM | > 100 µM | > 100 µM | > 100 µM | > 100 µM | > 100 µM | > 100 µM | > 100 µM |
| C=CC(OC(C)=O)c1ccc(OC(C)=O)cc1 (stereo not given) | 2.99 µM | 32.7 µM | 32.1 µM | 37.1 µM | 11.7 µM | 4.78 µM | 12 µM | 28.7 µM | 8.24 µM | 16 µM |
| CC(=O)Nc1ccc(/C=C2/NC(=S)N(/C=C3\C(=O)Oc4ccccc4C3=O)C2=O)cc1 | > 100 µM | > 100 µM | > 100 µM | > 100 µM | > 100 µM | > 100 µM | > 100 µM | > 100 µM | > 100 µM | > 100 µM |
| COc1cc2oc(-c3ccc4c(c3)OCO4)c(OC)c(=O)c2c(O)c1OC | > 50 µM | > 50 µM | > 50 µM | > 50 µM | > 50 µM | > 50 µM | > 50 µM | > 50 µM | > 50 µM | > 50 µM |
| O=C(NCCCCCCO)c1cccc2cc3ccccc3nc12 | 36.2 µM | 36.6 µM | 35.3 µM | 39 µM | > 100 µM | 33.7 µM | 30.1 µM | 32.1 µM | 26 µM | 33.9 µM |
| C=CCOC1(CC=C)C(=O)OC2C(O)COC21O (stereo not given) | > 100 µM | > 100 µM | > 100 µM | > 100 µM | > 100 µM | > 100 µM | > 100 µM | > 100 µM | > 100 µM | > 100 µM |
| CNC(=O)N(CCC#N)CCCN(C(=O)N(C)C)c1ccccc1 | > 100 µM | > 100 µM | > 100 µM | > 100 µM | > 100 µM | > 100 µM | > 100 µM | > 100 µM | > 100 µM | > 100 µM |
| CC(=Nc1cc(Cl)cc(Cl)c1)c1ccncc1 | > 100 µM | > 100 µM | > 100 µM | > 100 µM | > 100 µM | > 100 µM | > 100 µM | > 100 µM | > 100 µM | > 100 µM |
| COC(=O)[C@](C)(Cc1ccccc1)NC(=O)[C@@H](C)N1[C@@H](c2ccccc2)COC1(C)C | > 100 µM | > 100 µM | > 100 µM | > 100 µM | > 100 µM | > 100 µM | > 100 µM | > 100 µM | > 100 µM | > 100 µM |
| CC(C)(Cc1ccccc1)N1C(=O)N1C(C)(C)Cc1ccccc1 | 56.4 µM | 32.9 µM | 46 µM | > 100 µM | > 100 µM | > 100 µM | 48.4 µM | > 100 µM | > 100 µM | > 100 µM |
| COC(=O)C1CC23C=CCN4CC(C2C)C2(c5ccccc5NC12)C43 (stereo not given) | > 100 µM | > 100 µM | > 100 µM | > 100 µM | > 100 µM | > 100 µM | > 100 µM | > 100 µM | > 100 µM | > 100 µM |
| Nc1ccc2c(c1)NC(=O)[C@@H]1CCCN1C2=O | > 100 µM | > 100 µM | > 100 µM | > 100 µM | > 100 µM | > 100 µM | > 100 µM | > 100 µM | > 100 µM | > 100 µM |
| O=c1[nH]c2cc([N+](=O)[O-])c(Nc3c4ccccc4nc4ccccc34)c([N+](=O)[O-])c2[nH]1 | 17.6 µM | 9.33 µM | 15 µM | 7.75 µM | 16.3 µM | 13.7 µM | 8.6 µM | 26.7 µM | 8.83 µM | 11.2 µM |
| COC(=O)/C=c1/c2ccccc2n2c1c1ccccc1[n+]2C | 14.9 µM | 12.8 µM | 21 µM | 12.5 µM | 15.7 µM | 14 µM | 11.6 µM | > 100 µM | > 100 µM | 8.08 µM |
| CC(=O)NC(=O)NC1=NCCC(=O)N1CCc1c[nH]c2ccccc12 | > 100 µM | > 100 µM | > 100 µM | > 100 µM | > 100 µM | > 100 µM | > 100 µM | > 100 µM | > 100 µM | > 100 µM |
| CC1CN=C(c2ccc(-c3nc(-c4ccc(C5=NCC(C)N5)cc4)nc(N(C)C)n3)cc2)N1 (stereo not given) | 4.49 µM | 7.33 µM | 5.35 µM | 11.1 µM | 10 µM | 2.2 µM | 4.05 µM | 6.73 µM | 12.9 µM | 8.76 µM |
